{"source": "patent US10603357B2", "about": "“Therapeutic TREM-1 peptides” (Universite de Lorraine, priority 2004, dated 2020)", "format_in_all_cases": "in vivo, mouse", "key": {"BALB/c mice": {"tested_on": "BALB/c mice", "assay": "endotoxin-induced septic shock in mice, hP5 (Example 5)", "settings": "200 microliters peptide i.p. at −1 h, 0 h, +4 h, 200 microg LPS i.p., 15 mice per group", "protocol": "Septic shock was induced in male Balb/c mice (n=15/group) with […] of LPS as described in Material and Methods. hP5 peptide or control were administered at the following time points: −1 h, 0 h, +1 h+4 h. Mortality was followed twice a day for 7 days. Data were analysed using GraphPad Prism Survival curve analysis.\nFor the experiment, male BALB/c mice (19-21 g) were randomly grouped (15 mice per group) and injected intraperitoneally (i.p.) with 200 microg of LPS from E. coli 0111:B4 (Sigma). A blinded investigator performed all injections. 200 microliters of TREM-1 peptides dissolved in water 10% DMSO, 9% Solutol were administered intraperitoneally at −1 h, 0 h, +1 h, +4 h prior and after LPS injection. Viability of treated mice was monitored twice a day for 7 days."}, "C57BL/6 mice": {"tested_on": "C57BL/6 mice", "assay": "Cecal Ligation and Puncture model in mice, hP5 (Example 6)", "settings": "200 μl i.p. at −1 h, 0 h, +4 h and +24 hours; n=15/group", "protocol": "Mortality was followed twice a day for 10 days. Data were analyzed using GraphPad Prism Survival curve analysis.\nFor the experiment the mice underwent a standardized preparation for laparotomy (anaesthesia with 2% inhaled isoflurane in oxygen, shaving with animal clippers, alcohol scrub). A 1 cm incision was made on the midline. The cecum was exposed and will be tightly ligated at 50-80% over its base with a 4-0 silk suture avoiding bowel obstruction. The cecum was then punctured once with a 23G needle. The cecum was gently squeezed until feces be just visible through the puncture, and placed again in the abdominal cavity. The incision was thereafter be closed with a 4-0 silk. 200 μl of hP5 or its scrambled peptide control were freshly dissolved in water 10% DMSO, 9% solutol and injected intraperitoneally with a 22 G needle at the following time points: −1, 0, +4, +24. No fluid resuscitation was administered.\nSurvival and Moribundity were observed twice a day for 10 days."}, "mice": {"tested_on": "mice", "assay": "DSS colitis model in mice, hP5 (Example 7)", "protocol": "On day 0 of the study, the water supply was removed and replaced with 3% Dextran Sulfate Sodium (DSS) From day 0 to day 6, this solution was the only source of fluids. Water was administered for the rest of the experiment (day 7-11). Healthy controls received water only.\nFrom day 3 to day 10 mice were treated with either hP5, or a sequence-scrambled control peptide. Peptides were dissolved in DMSO at 10 mg/ml and stored at +4° C. Before administration, the stock solution was diluted 1:10 in water 10% Solutol® HS 15 (BASF). Final vehicle concentrations: 1% DMSO, 10% solutol in water. 200 μl of these freshly prepared solutions of hP5, its scrambled control or vehicle were injected intraperitoneally with a 25 G needle.\nAnimals were weighted daily and monitored on days 3, 4, 5, 6, 7 and 10 for rectal bleeding and stool consistency. For each group, the disease activity index (DAI) was determined by evaluating changes in weight, stool consistency and presence of gross blood during the study, as described below:\nTo determine the presence of occult blood in stool, a pea-sized stool sample was placed on a slide. Then two drops of reagent (Hemocult Sensa, Beckman Coulter) were placed onto the stool sample on the slide and a change of colour was observed. The presence of occult blood was graded using a score of 0 for no colour; 1 for a very light blue (+/−) colour taking over 30 seconds to appear, 2 for a blue colour developing in […] (+); 3 for an immediate change in colour (++) and 4 for gross blood observable on the slide.\nOn day 11 mice were euthanized by cervical dislocation to allow colon length evaluation. An incision was done in the abdomen to expose the colon. The stool in the colon was removed flushing with saline. The entire colon from cecum to anus was removed and the length was measured and reported as colon length (cm).\nData were analyzed using Graph Pad Prism. Results are given as means±standard error of the mean. The BW score, stool score and blood score were analyzed using two-way ANOVA test, Bonferroni post test. Colon length was analysed using one-way ANOVA, Dunn's post test. *P≤0.05; **P≤0.01; ***P≤0.001"}}}
{"sequence": "LQVEDSGLYQCVIYQPP (listed as Homo sapiens) [hP5]", "values": [{"measurement": "animals alive 7 days after LPS injection", "setting": "BALB/c mice", "result": 80, "unit": "%"}, {"measurement": "mice alive at 10 days after CLP", "setting": "C57BL/6 mice", "result": 66.6, "unit": "%"}, {"measurement": "mice surviving at 72 hours after CLP", "setting": "C57BL/6 mice", "result": 73.3, "unit": "%"}, {"measurement": "Disease Activity Index (DAI) score", "setting": "mice; 3% DSS day 0-6, peptide i.p. daily from day 3, day 5, mean ± standard error", "result": "1.95±0.170"}, {"measurement": "DAI inhibition compared to DSS+vehicle or DSS+scrambled peptide", "setting": "mice; day 5", "result": "~50", "unit": "%"}, {"measurement": "Stool score (stool consistency)", "setting": "mice; day 10, mean ± standard error", "result": "0.71±0.474"}, {"measurement": "blood score (haemoccult / gross blood)", "setting": "mice; day 10, mean ± standard error", "result": "0.43±0.202"}, {"measurement": "weight loss, expressed as a score", "setting": "mice; day 10, mean ± standard error", "result": "2.00±0.436"}, {"measurement": "colon length", "setting": "mice; day 11, mean ± standard error", "result": "7.41±0.237", "unit": "cm"}]}
